Source: patent US11319321B2, “[1,2,4]triazolo[1,5-a]pyrimidine compounds as PDE2 inhibitors” (Janssen Pharmaceutica NV, priority 2016, dated 2022)
Like-named read-outs stand apart in the source and are kept apart here.

Key:
hPDE10A2 = hPDE10A2 (Homo sapiens, UniProt Q9Y233); assay: biochemical; conditions: 60 nM cAMP substrate; for IC50: human clone, read-out: hPDE10A2 or rPDE10A2 pIC50 (converted); for Emax: read-out: hPDE10A2 or rPDE10A2 Emax, human clone
Description: Rat recombinant PDE10A (rPDE10A2) was expressed in Sf9 cells using a recombinant rPDE10A baculovirus construct. Cells were harvested after 48 h of infection and the rPDE10A protein was purified by metal chelate chromatography on Ni-sepharose 6FF. Tested compounds were dissolved and diluted in 100% DMSO to a concentration 100 fold of the final concentration in the assay. Human recombinant PDE10A ([…]) was expressed in Sf9 cells using a recombinant hPDE10A baculovirus that was made and amplified in house. Cells were harvested after 72 h of infection and the hPDE10A protein was purified by metal chelate chromatography on Ni-sepharose. Compound dilutions (0.4 μl) were added in 384 well plates to 20 μl of incubation buffer (50 mM Tris pH 7.8, 8.3 mM MgCl2, 1.7 mM EGTA). 10 μl of rPDE10A or hPDE10A enzyme in incubation buffer was added and the reaction was started by addition of 10 μl substrate to a final concentration of 60 nM cAMP and […] ^3H-cAMP. The reaction was incubated for 60 minutes at room temperature. After incubation, the reaction was stopped with 20 μl of stop solution consisting of 17.8 mg/ml PDE SPA (scintillation proximity assay) beads. After sedimentation of the beads during 30 minutes the radioactivity was measured in a Perkin Elmer Topcount scintillation counter and results were expressed as cpm. For blanc values the enzyme was omitted from the reaction and replaced by incubation buffer. Control values were obtained by addition of a final concentration of 1% DMSO instead of compound. A best fit curve is fitted by a minimum sum of squares method to the plot of % of control value substracted with blanc value versus compound concentration and the half maximal inhibitory concentration (IC50) value is derived from this curve.

[1] = molecular target: T1, Human recombinant PDE2A (hPDE2A) (Homo sapiens, UniProt O00408); assay: In vitro assay PDE2A (SPA, 3H-cGMP); format: biochemical
T1 construct: made in house; host or cells: Sf9 insect cells (baculovirus)
T1 sequence (O00408 whole entry): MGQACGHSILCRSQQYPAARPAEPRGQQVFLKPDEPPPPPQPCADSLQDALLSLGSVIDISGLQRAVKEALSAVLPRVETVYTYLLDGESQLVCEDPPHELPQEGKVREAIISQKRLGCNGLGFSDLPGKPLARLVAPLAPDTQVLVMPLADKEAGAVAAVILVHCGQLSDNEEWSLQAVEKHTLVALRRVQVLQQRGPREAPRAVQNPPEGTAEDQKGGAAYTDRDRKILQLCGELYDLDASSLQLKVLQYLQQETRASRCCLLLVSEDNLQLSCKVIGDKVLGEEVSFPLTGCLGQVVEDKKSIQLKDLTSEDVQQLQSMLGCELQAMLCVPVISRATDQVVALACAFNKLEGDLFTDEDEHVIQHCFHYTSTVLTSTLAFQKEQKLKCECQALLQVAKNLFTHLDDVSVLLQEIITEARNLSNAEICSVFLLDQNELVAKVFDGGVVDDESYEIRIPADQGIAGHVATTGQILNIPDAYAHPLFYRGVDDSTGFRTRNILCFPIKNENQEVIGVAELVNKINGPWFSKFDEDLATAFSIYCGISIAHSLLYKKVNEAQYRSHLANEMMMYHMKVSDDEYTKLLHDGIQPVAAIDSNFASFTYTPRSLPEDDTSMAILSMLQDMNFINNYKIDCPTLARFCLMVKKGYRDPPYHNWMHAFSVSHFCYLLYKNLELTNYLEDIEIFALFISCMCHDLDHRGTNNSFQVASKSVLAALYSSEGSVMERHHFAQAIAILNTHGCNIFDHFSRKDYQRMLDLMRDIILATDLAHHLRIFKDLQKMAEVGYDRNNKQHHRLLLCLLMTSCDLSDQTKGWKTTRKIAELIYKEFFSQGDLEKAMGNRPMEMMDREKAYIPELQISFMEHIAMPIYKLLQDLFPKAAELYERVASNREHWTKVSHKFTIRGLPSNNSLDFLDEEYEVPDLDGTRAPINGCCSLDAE
Description: Human recombinant PDE2A (hPDE2A) was expressed in Sf9 cells using a recombinant rPDE10A baculovirus construct. Cells were harvested after 48 h of infection and the hPDE2A protein was purified by metal chelate chromatography on Ni-sepharose 6FF. Tested compounds were dissolved and diluted in 100% DMSO to a concentration 100 fold of the final concentration in the assay. Compound dilutions (0.4 μl) were added in 384 well plates to 20 μl of incubation buffer (50 mM Tris pH 7.8, 8.3 mM MgCl2, 1.7 mM EGTA). 10 μl of hPDE2A enzyme in incubation buffer was added and the reaction was started by addition of 10 μl substrate to a final concentration of 10 μM cGMP and 0.01 μCi ^3H-cGMP. The reaction was incubated for 45 minutes at room temperature. […] After sedimentation of the beads during 30 minutes the radioactivity was measured in a Perkin Elmer Topcount scintillation counter and results were expressed as cpm. For blanc values the enzyme was omitted from the reaction and replaced by incubation buffer. Control values were obtained by addition of a final concentration of 1% DMSO instead of compound.

hPDE3B = assay: In vitro assay PDE3 (SPA, 3H-cAMP); format: biochemical, human; conditions: 0.4 μM cAMP substrate; for hPDE3B Emax: in % (unit assumed)
[2] = 10 μM cGMP substrate, read-out: hPDE2A pIC50 (converted)
[3] = hPDE2A pIC50, 10 μM cGMP substrate

Chain of hPDE10A2 (Q9Y233 267-1055): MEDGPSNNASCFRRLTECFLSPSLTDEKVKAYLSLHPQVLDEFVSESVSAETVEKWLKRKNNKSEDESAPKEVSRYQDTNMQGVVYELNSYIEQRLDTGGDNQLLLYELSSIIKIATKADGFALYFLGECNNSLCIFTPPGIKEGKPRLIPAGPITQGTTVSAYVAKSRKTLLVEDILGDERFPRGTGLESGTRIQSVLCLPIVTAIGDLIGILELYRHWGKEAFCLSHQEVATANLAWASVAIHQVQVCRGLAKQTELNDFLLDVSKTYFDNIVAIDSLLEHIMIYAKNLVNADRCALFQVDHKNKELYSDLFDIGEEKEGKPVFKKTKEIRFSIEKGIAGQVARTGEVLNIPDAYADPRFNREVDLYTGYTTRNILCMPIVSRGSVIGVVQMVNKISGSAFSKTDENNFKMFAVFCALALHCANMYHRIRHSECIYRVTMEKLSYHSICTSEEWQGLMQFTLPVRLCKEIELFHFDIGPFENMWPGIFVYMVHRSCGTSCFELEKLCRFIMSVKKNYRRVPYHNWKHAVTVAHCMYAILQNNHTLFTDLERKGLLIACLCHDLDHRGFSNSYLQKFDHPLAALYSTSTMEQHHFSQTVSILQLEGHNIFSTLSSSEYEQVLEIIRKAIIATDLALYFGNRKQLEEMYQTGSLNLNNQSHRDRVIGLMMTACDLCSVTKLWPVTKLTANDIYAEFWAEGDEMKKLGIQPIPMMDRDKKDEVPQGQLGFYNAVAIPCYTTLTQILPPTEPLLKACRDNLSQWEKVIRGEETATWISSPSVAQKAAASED

Compound | IC50 (hPDE10A2) [µM] | Emax (hPDE10A2) [%] | IC50 [1] [µM] | Emax ([1]; 10 μM cGMP substrate) [%] | hPDE3B pIC50 (hPDE3B) | hPDE3B Emax (hPDE3B) | IC50 [1, 2] [µM] | IC50 [1, 3] [µM]
C[C@@H]1CCN([C@H](C)c2ccc3ncsc3c2)C[C@H]1c1cc(C(F)F)nc2ncnn12 (single isomer, unassigned) [Compound 12] | 2.04 | 86 | 0.0447 | 99 | ~5.07 | 54 | – | –
C[C@@H]1CCN([C@H](C)c2ccc(C(F)(F)F)cc2)C[C@H]1c1cc(C(F)F)nc2ncnn12 (relative stereo) [Compound 7] | 7.76 | 47 | 0.102 | 98 | 5.08 | 57 | – | –
C[C@@H]1CCN(Cc2ccccc2)C[C@H]1c1cc(C(F)F)nc2ncnn12 [Compound 20] | > 10 | 26 | – | 97 | <5 | 23 | 0.457 | –
C[C@H]1CCN(Cc2ccc(F)c(F)c2)C[C@@H]1c1cc(C(F)F)nc2ncnn12.Cl [Compound 41] | > 10 | 15 | – | 33 | <5 | 20 | 1.95 | –
Cc1cc([C@H](C)N2CC[C@@H](C)[C@H](c3cc(C(F)F)nc4ncnn34)C2)cc(C2CC2)n1 (relative stereo) [Compound 2] | 2.95 | 78 | – | 99 | <5 | 29 | 0.0871 | –
C[C@@H]1CCN(Cc2cccc(OC(F)(F)F)c2)C[C@H]1c1cc(C(F)F)nc2ncnn12 [Compound 24] | 7.24 | 58 | 0.692 | 96 | – | – | – | –
C[C@@H]1CCN([C@@H](C)c2ccc3ncsc3c2)C[C@H]1c1cc(C(F)F)nc2ncnn12 (single isomer, unassigned) [Compound 13] | 1.48 | 85 | 0.0589 | 98 | ~5.02 | 47 | – | –
C[C@@H]1CCN(Cc2cn(C)c3ccccc23)C[C@H]1c1cc(C(F)F)nc2ncnn12.Cl [Compound 35] | 7.59 | 53 | – | 102 | <5 | 22 | – | 0.0479
COc1ccc(CN2CC[C@@H](C)[C@H](c3cc(C(F)F)nc4ncnn34)C2)c(OC)c1.Cl [Compound 45] | > 10 | 37 | – | 49 | <5 | 6 | – | 0.955
C[C@@H]1CCN(Cc2ccc(OC(F)(F)F)cc2)C[C@H]1c1cc(C(F)F)nc2ncnn12 [Compound 23] | 6.92 | 62 | – | 97 | 5.14 | 49 | 0.575 | –
C[C@@H]1CCN(Cc2nccc3ccccc23)C[C@H]1c1cc(C(F)F)nc2ncnn12 [Compound 19] | 8.51 | 58 | 0.324 | 96 | <5 | 35 | – | –
C[C@]1(c2cc(C(F)F)nc3ncnn23)CCCN(Cc2ccc(F)c(F)c2)C1.Cl (stereo in doubt) [Compound 54] | > 10 | 9 | – | 15 | <5 | 5 | ~8.91 | –
C[C@@H]1CCN(Cc2cccc(OC(F)F)c2)C[C@H]1c1cc(C(F)F)nc2ncnn12 [Compound 22] | 7.76 | 61 | 0.562 | 95 | <5 | 42 | – | –
COc1ccc(CN2CCC[C@](C)(c3cc(C(F)F)nc4ncnn34)C2)c(OC)c1.Cl (stereo in doubt) [Compound 53] | > 10 | 0 | – | 14 | <5 | 3 | – | 6.92
C[C@@H]1CCN([C@@H](C)c2ccc(C(F)(F)F)cc2)C[C@H]1c1cc(C(F)F)nc2ncnn12 (relative stereo) [Compound 6] | 6.31 | 68 | 0.178 | 99 | <5 | 37 | – | –
C[C@@H]1CCN(Cc2ccc(C(F)(F)F)cc2)C[C@H]1c1cc(C(F)F)nc2ncnn12 [Compound 39] | 6.17 | 65 | – | 99 | – | – | 0.17 | –
Cl.FC(F)c1cc([C@H]2CC[C@H]3CC[C@@H]2N3Cc2ccc(Cl)c(Cl)c2)n2ncnc2n1 [Compound 57] | 7.94 | 58 | 0.105 | 100 | <5 | 35 | – | –
C[C@@H]1CCN(Cc2ccc(F)c(F)c2)C[C@H]1c1cc(C(F)F)nc2ncnn12.Cl [Compound 40] | > 10 | 35 | – | 42 | <5 | 10 | 1.12 | –
C[C@@H]1CCN(Cc2nn(C)c3ccccc23)C[C@H]1c1cc(C(F)F)nc2ncnn12 [Compound 48] | > 10 | 37 | – | 96 | <5 | 23 | – | 0.977
CC(C)c1ccc(CN2CC[C@@H](C)[C@H](c3cc(C(F)F)nc4ncnn34)C2)cc1 [Compound 18] | 7.76 | 56 | 0.282 | 98 | 5.1 | 60 | – | –
C[C@H]1CCN(Cc2cc3ccccc3o2)C[C@@H]1c1cc(C(F)F)nc2ncnn12.Cl [Compound 55] | > 10 | 12 | – | 25 | <5 | 40 | – | 2.24
C[C@@H]1CCN(Cc2ccc(Cl)c(Cl)c2)C[C@H]1c1cc(C(F)F)nc2ncnn12 [Compound 14] | 2.29 | 80 | 0.0562 | 102 | <5 | 39 | – | –
Cc1cc(CN2CC[C@@H](C)[C@H](c3cc(C(F)F)nc4ncnn34)C2)cc(Cl)n1.Cl [Compound 10] | 1.58 | 82 | 0.0245 | 96 | <5 | 19 | – | –
Cc1cc(C(C)N2CC[C@@H](C)[C@H](c3cc(C(F)F)nc4ncnn34)C2)cc(C)n1 (mixture of isomers) [Compound 1] | 2.95 | 74 | – | 100 | <5 | 45 | – | 0.0209
C[C@@H]1CCN(Cc2cccc(C#N)n2)C[C@H]1c1cc(C(F)F)nc2ncnn12 [Compound 25] | > 10 | 28 | – | 92 | <5 | 12 | – | 1.02
Cc1csc(CN2CC[C@@H](C)[C@H](c3cc(C(F)F)nc4ncnn34)C2)c1.Cl [Compound 43] | 6.92 | 44 | – | 77 | <5 | 0 | – | 0.347
Cc1cc(CN2CC[C@H](C)[C@@H](c3cc(C(F)F)nc4ncnn34)C2)ccn1.Cl [Compound 16] | > 10 | 10 | 5.89 | 4 | <5 | 23 | – | –
C[C@@H]1CCN(Cc2ccc(C#N)cc2)C[C@H]1c1cc(C(F)F)nc2ncnn12 [Compound 21] | ~10 | 48 | 0.468 | 97 | <5 | 24 | – | –
